Measured values reported in article PMC3878488, “Biarsenical ligands bind to endogenous G-protein α-subunits and enable allosteric sensing of nucleotide binding” (BMC Biochemistry, 2013).

Legend:
Assay in all cases: F2FlAsH fluorescence anisotropy, nucleotide titration
Format in all cases: binding
[1] = system: T1, αsshort + βγM (F2FlAsH-labeled); conditions: pH 7.8, 28°C, 2 mM MgCl2, 1 mM EDTA, 6 h; 15 nM F2FlAsH allosteric label
T1 construct: gene GNAS; wild-type alpha (Kerafast, purified by GST-Ric8 association), reconstituted with beta1 / StrepII- and CCKACC-tagged gamma2 from Sf9
Description: F2FlAsH fluorescence anisotropy, nucleotide titration on αsshort + βγM (F2FlAsH-labeled)

[2] = system: T2, αi3βγM (F2FlAsH-labeled); conditions: pH 7.8, 28°C, 2 mM MgCl2, 1 mM EDTA, 2 h; 5 nM F2FlAsH allosteric label, ~40 nM nucleotide-depleted heterotrimer
T2 construct: gene GNAI3; wild-type alpha co-expressed in Sf9 with beta1 / StrepII- and CCKACC-tagged gamma2; nucleotide-depleted heterotrimer
Description: F2FlAsH fluorescence anisotropy, nucleotide titration on αi3βγM (F2FlAsH-labeled)

[3] = system: T3, αolf + βγM (F2FlAsH-labeled); conditions: pH 7.8, 28°C, 2 mM MgCl2, 1 mM EDTA, 6 h; 15 nM F2FlAsH allosteric label
T3 construct: gene GNAL; wild-type alpha (Kerafast, purified by GST-Ric8 association), reconstituted with beta1 / StrepII- and CCKACC-tagged gamma2 from Sf9
Description: F2FlAsH fluorescence anisotropy, nucleotide titration on αolf + βγM (F2FlAsH-labeled)

[4] = system: T4, αi2βγM (F2FlAsH-labeled); conditions: pH 7.8, 28°C, 2 mM MgCl2, 1 mM EDTA, 2 h; 5 nM F2FlAsH allosteric label, ~40 nM nucleotide-depleted heterotrimer
T4 construct: gene GNAI2; wild-type alpha co-expressed in Sf9 with beta1 / StrepII- and CCKACC-tagged gamma2; nucleotide-depleted heterotrimer
Description: F2FlAsH fluorescence anisotropy, nucleotide titration on αi2βγM (F2FlAsH-labeled)

[5] = system: T5, αslong + βγM (F2FlAsH-labeled); conditions: pH 7.8, 28°C, 2 mM MgCl2, 1 mM EDTA, 6 h; 15 nM F2FlAsH allosteric label
T5 construct: gene GNAS; wild-type alpha (Kerafast, purified by GST-Ric8 association), reconstituted with beta1 / StrepII- and CCKACC-tagged gamma2 from Sf9
Description: F2FlAsH fluorescence anisotropy, nucleotide titration on αslong + βγM (F2FlAsH-labeled)

[6] = system: T6, αq + βγM (F2FlAsH-labeled); conditions: pH 7.8, 28°C, 2 mM MgCl2, 1 mM EDTA, 6 h; 15 nM F2FlAsH allosteric label
T6 construct: gene GNAQ; wild-type alpha (Kerafast, purified by GST-Ric8 association), reconstituted with beta1 / StrepII- and CCKACC-tagged gamma2 from Sf9
Description: F2FlAsH fluorescence anisotropy, nucleotide titration on αq + βγM (F2FlAsH-labeled)

[7] = system: T7, α13 + βγM (F2FlAsH-labeled); conditions: pH 7.8, 28°C, 2 mM MgCl2, 1 mM EDTA, 14 h; 15 nM F2FlAsH allosteric label
T7 construct: gene GNA13; wild-type alpha (Kerafast, purified by GST-Ric8 association), reconstituted with beta1 / StrepII- and CCKACC-tagged gamma2 from Sf9
Description: F2FlAsH fluorescence anisotropy, nucleotide titration on α13 + βγM (F2FlAsH-labeled)

[8] = system: T8, αi1βγM (F2FlAsH-labeled); conditions: pH 7.8, 28°C, 2 mM MgCl2, 1 mM EDTA, 2 h; 5 nM F2FlAsH allosteric label, ~40 nM nucleotide-depleted heterotrimer
T8 construct: gene GNAI1; wild-type alpha co-expressed in Sf9 with beta1 / StrepII- and CCKACC-tagged gamma2; nucleotide-depleted heterotrimer
Description: F2FlAsH fluorescence anisotropy, nucleotide titration on αi1βγM (F2FlAsH-labeled)

Nc1nc2c(ncn2[C@@H]2O[C@H](COP(=O)(O)OP(=O)(O)O)[C@@H](O)[C@H]2O)c(=O)[nH]1 [GDP] was tested, and the GDP [1] was 4.85 ± 0.05 -log M, the GDP [2] was 8.08 ± 0.10 -log M and the GDP [3] was 5.00 ± 0.03 -log M. For the same molecule, the GDP [4] was 8.17 ± 0.13 -log M, the GDP [5] was 4.72 ± 0.18 -log M and the GDP [6] was 5.87 ± 0.06 -log M. The GDP [7] was 4.98 ± 0.23 -log M and the GDP [8] was 8.19 ± 0.16 -log M.
With Nc1nc2c(ncn2[C@@H]2O[C@H](COP(=O)(O)O)[C@@H](O)[C@H]2O)c(=O)[nH]1 [GMP] the GMP [1] was < 3 -log M, the GMP [2] was 5.29 ± 0.13 -log M and the GMP [3] was < 3 -log M. For the same molecule, the GMP [4] was 4.45 ± 0.07 -log M, the GMP [6] was < 3 -log M and the GMP [8] was 5.89 ± 0.12 -log M.
For Nc1nc2c(ncn2[C@@H]2O[C@H](COP(=O)(O)OP(=O)(O)OP(O)(O)=S)[C@@H](O)[C@H]2O)c(=O)[nH]1 [GTPγS], the GTPγS [1] was 7.06 ± 0.04 -log M, the GTPγS [2] was 7.87 ± 0.06 -log M and the GTPγS [3] was 6.43 ± 0.04 -log M. For the same molecule, the GTPγS [4] was 8.02 ± 0.09 -log M, the GTPγS [5] was 7.47 ± 0.09 -log M and the GTPγS [6] was 6.27 ± 0.05 -log M. The GTPγS [7] was 5.65 ± 0.13 -log M.
With Nc1nc2c(ncn2[C@@H]2O[C@H](COP(=O)(O)OP(=O)(O)NP(=O)(O)O)[C@@H](O)[C@H]2O)c(=O)[nH]1 [GppNHp] the GppNHp [1] was 6.42 ± 0.04 -log M, the GppNHp [2] was 7.93 ± 0.07 -log M and the GppNHp [3] was 5.84 ± 0.05 -log M. For the same molecule, the GppNHp [4] was 7.84 ± 0.14 -log M, the GppNHp [5] was 6.56 ± 0.07 -log M and the GppNHp [6] was 5.96 ± 0.07 -log M. The GppNHp [7] was 5.36 ± 0.14 -log M and the GppNHp [8] was 8.08 ± 0.04 -log M.
